According to patent US7709507B2 (Allergan, Inc., priority 2006, dated 2010):
Read-outs that look alike come from different tables or passages of the source.

Key:
Type in all cases: cell-based
alpha2A receptor = molecular target: T1, alpha2A receptor (Homo sapiens, UniProt P08913); assay: Receptor Selection and Amplification Technology (RSAT) assay, Alpha 2A; settings: for Alpha 2A EC50: RSAT, transfected NIH-3T3 cells with Gq/i5, not active = at concentrations less than 10 micromolar
T1 construct: expressed in transfected cells; host or cells: NIH-3T3 cells
T1 sequence (P08913 1-465): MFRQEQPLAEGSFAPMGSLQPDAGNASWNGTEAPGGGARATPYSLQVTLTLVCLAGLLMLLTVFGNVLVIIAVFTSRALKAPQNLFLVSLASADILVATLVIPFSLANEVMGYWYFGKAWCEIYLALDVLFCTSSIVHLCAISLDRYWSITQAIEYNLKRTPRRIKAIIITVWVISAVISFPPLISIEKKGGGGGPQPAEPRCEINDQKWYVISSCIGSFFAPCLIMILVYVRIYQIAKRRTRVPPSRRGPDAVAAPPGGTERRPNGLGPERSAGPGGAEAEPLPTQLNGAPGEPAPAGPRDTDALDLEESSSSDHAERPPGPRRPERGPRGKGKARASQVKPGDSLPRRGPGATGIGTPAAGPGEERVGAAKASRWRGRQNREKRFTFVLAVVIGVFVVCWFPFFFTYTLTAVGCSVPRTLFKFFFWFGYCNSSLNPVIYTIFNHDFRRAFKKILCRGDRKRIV
Method: (§1) Receptor Selection and Amplification Technology (RSAT) Assay
(§2) The RSAT assay measures a receptor-mediated loss of contact inhibition that results in selective proliferation of receptor-containing cells in a mixed population of confluent cells. The increase in cell number is assessed with an appropriate transfected marker gene such as β-galactosidase, the activity of which can be easily measured in a 96-well format. Receptors that activate the G protein, Gq, elicit this response. Alpha2 receptors, which normally couple to Gi, activate the RSAT response when coexpressed with a hybrid Gq protein that has a Gi receptor recognition domain, called Gq/i5.
(§3) NIH-3T3 cells are plated at a density of 2×10^6 cells in 15 cm dishes and maintained in Dulbecco's modified Eagle's medium supplemented with 10% calf serum. One day later, cells are cotransfected by calcium phosphate precipitation with mammalian expression plasmids encoding p-SV-β-galactosidase (5-10 μg), receptor (1-2 μg) and G protein (1-2 μg). 40 μg salmon sperm DNA may also be included in the transfection mixture. […] Cells are thawed and 100 μl added to 100 μl aliquots of various concentrations of drugs in triplicate in 96-well dishes. Incubations continue 72-96 hr at 37° C. After washing with phosphate-buffered saline, β-galactosidase enzyme activity is determined by adding 200 μl of the chromogenic substrate (consisting of 3.5 mM o-nitrophenyl-β-D-galactopyranoside and 0.5% nonidet P-40 in phosphate buffered saline), incubating overnight at 30° C. and measuring optical density at 420 nm. The absorbance is a measure of enzyme activity, which depends on cell number and reflects a receptor-mediated cell proliferation. The efficacy or intrinsic activity is calculated as a ratio of the maximal effect of the drug to the maximal effect of a standard full agonist for each receptor subtype. Brimonidine, also called UK14304, the chemical structure of which is shown below, is used as the standard agonist for the alpha2A, alpha2B and alpha2C receptors. The EC50 is the concentration at which the drug effect is half of its maximal effect.
(§4) EC50 values are nanomolar. NA stands for “not active” at concentrations less than 10 micromolar. IA stands for “intrinsic activity.”

alpha2B receptor = molecular target: T2, alpha2B receptor (Homo sapiens, UniProt P18089); assay: Receptor Selection and Amplification Technology (RSAT) assay, Alpha 2B; settings: for EC50: transfected NIH-3T3 cells with Gq/i5, not active = at concentrations less than 10 micromolar; for Alpha 2B IA (intrinsic activity): ratio of maximal effect to that of standard full agonist brimonidine (UK14304)
T2 construct: expressed in transfected cells; host or cells: NIH-3T3 cells
T2 sequence (P18089 1-450): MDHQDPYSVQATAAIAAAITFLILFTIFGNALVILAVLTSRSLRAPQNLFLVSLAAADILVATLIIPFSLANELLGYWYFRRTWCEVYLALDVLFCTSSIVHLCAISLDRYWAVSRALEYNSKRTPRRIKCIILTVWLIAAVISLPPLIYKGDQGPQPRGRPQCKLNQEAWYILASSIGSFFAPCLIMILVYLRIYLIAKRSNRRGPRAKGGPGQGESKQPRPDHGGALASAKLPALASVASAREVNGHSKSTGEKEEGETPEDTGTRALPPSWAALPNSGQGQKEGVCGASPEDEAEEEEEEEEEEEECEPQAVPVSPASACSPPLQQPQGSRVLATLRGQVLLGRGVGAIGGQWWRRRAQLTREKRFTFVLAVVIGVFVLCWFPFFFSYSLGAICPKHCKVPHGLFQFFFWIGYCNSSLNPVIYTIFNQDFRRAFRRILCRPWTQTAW
Method: as §1, §2
NIH-3T3 cells are plated at a density of 2×10^6 cells in 15 cm dishes and maintained in Dulbecco's modified Eagle's medium supplemented with 10% calf serum. One day later, cells are cotransfected by calcium phosphate precipitation with mammalian expression plasmids encoding p-SV-β-galactosidase (5-10 μg), receptor (1-2 μg) and G protein (1-2 μg). 40 μg salmon sperm DNA may also be included in the transfection mixture. Fresh media is added on the following day and 1-2 days later, cells are harvested and frozen in 50 assay aliquots. Cells are thawed and 100 μl added to 100 μl aliquots of various concentrations of drugs in triplicate in 96-well dishes. Incubations continue 72-96 hr at 37° C. After washing with phosphate-buffered saline, β-galactosidase enzyme activity is determined by adding 200 μl of the chromogenic substrate (consisting of 3.5 mM o-nitrophenyl-β-D-galactopyranoside and 0.5% nonidet P-40 in phosphate buffered saline), incubating overnight at 30° C. and measuring optical density at 420 nm. The absorbance is a measure of enzyme activity, which depends on cell number and reflects a receptor-mediated cell proliferation. The efficacy or intrinsic activity is calculated as a ratio of the maximal effect of the drug to the maximal effect of a standard full agonist for each receptor subtype. Brimonidine, also called UK14304, the chemical structure of which is shown below, is used as the standard agonist for the alpha2A, alpha2B and alpha2C receptors. The EC50 is the concentration at which the drug effect is half of its maximal effect.
The results of the RSAT assay with several exemplary compounds of the invention are disclosed in Table 1 above together with the chemical formulas of these exemplary compounds. EC50 values are nanomolar. NA stands for “not active” at concentrations less than 10 micromolar. IA stands for “intrinsic activity.”

alpha2C receptor = molecular target: T3, alpha2C receptor (Homo sapiens, UniProt P18825); assay: Receptor Selection and Amplification Technology (RSAT) assay, Alpha 2C; settings: for Alpha 2C IA (intrinsic activity): ratio of maximal effect to that of standard full agonist brimonidine (UK14304)
T3 construct: expressed in transfected cells; host or cells: NIH-3T3 cells
T3 sequence (P18825 1-462): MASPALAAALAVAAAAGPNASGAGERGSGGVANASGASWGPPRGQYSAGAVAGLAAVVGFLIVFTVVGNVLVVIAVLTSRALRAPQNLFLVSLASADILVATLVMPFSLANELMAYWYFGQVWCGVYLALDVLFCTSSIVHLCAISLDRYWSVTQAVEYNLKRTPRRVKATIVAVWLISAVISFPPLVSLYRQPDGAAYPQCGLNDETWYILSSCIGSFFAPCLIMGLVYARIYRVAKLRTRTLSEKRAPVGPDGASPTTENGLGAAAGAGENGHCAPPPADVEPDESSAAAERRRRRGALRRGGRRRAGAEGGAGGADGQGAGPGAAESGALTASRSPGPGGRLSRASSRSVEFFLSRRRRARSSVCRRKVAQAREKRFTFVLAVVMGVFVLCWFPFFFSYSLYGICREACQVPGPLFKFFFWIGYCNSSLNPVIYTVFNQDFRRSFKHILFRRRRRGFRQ
Method: as §1, §2, §3, §4

[1] = RSAT, transfected NIH-3T3 cells with Gq/i5, not active = at concentrations less than 10 micromolar
[2] = RSAT, transfected NIH-3T3 cells with Gq/i5, not active = at concentrations less than 10 micromolar, read-out: Alpha 2C EC50

Row | Compound | EC50 (alpha2A receptor) | Alpha 2A IA (intrinsic activity) (alpha2A receptor; ratio of maximal effect to that of standard full agonist brimonidine (UK14304)) | EC50 (alpha2B receptor; Alpha 2B EC50, RSAT) | Alpha 2B IA (intrinsic activity) (alpha2B receptor) | EC50 (alpha2C receptor) | Alpha 2C IA (intrinsic activity) (alpha2C receptor) | Alpha 2A EC50 (alpha2A receptor) | EC50 (alpha2B receptor; RSAT, read-out: Alpha 2B EC50) | Alpha 2C EC50 (alpha2C receptor; [1]) | EC50 (alpha2C receptor; [2])
1 | O=C(NCCF)NC(Cc1ccccc1)c1cccs1 (stereo not shown) [1-(2-fluoroethyl)-3-[2-phenyl-1-(2-thienyl)ethyl]urea] | 346 nM | 0.35 | 28.5 nM | 0.99 | 119 nM | 0.35 |  |  |  | 
2 | O=C(NCCF)NC(Cc1ccccc1)c1ccco1 (stereo not shown) [1-(2-fluoro-ethyl)-3-(1-furan-2-yl-2-phenyl-ethyl)-urea] |  |  |  | 0.77 |  |  | not active | 513 nM | not active | 
3 | O=C(NCCF)NC(Cc1ccccc1)c1ccc(Cl)c(Cl)c1 (stereo not shown) [1-[1-(3,4-dichlorophenyl)-2-phenylethyl]-3-(2-fluoroethyl)urea] |  |  |  | 0.69 |  |  | not active | 488 nM | not active | 
4 | O=C(NCCF)NC(Cc1ccccc1)c1ccccc1Cl (stereo not shown) [1-[1-(2-chlorophenyl)-2-phenylethyl]-3-(2-fluoroethyl)urea] |  |  |  | 0.64 |  | 0.34 | not active | 407 nM |  | 700 nM
5 | Cc1ccccc1CC(NC(=O)NCCF)c1cccc(Cl)c1 (stereo not shown) |  |  |  | 0.94 |  | 0.38 | not active | 26.8 nM |  | 787 nM
6 | COc1ccc(C(Cc2ccccc2)NC(=O)NCCF)cc1 (stereo not shown) [1-(2-fluoroethyl)-3-[1-(4-methoxyphenyl)-2-phenylethyl]urea] |  |  |  | 0.3 |  |  | not active | 1060 nM | not active | 
7 | O=C(NCCF)NC(Cc1ccccc1)c1ccccc1 (stereo not shown) [1-(1,2-diphenyl-ethyl)-3-(2-fluoro-ethyl)-urea] |  |  | 33.8 nM | 0.96 | 345 nM | 0.32 | not active |  |  | 
8 | O=C(NCCF)NC(Cc1cccc(F)c1)c1cccc(C(F)(F)F)c1 (stereo not shown) [1-(2-fluoro-ethyl)-3-[2-(3-fluoro-phenyl)-1-(3-trifluoromethyl-phenyl)-ethyl]-urea] |  |  |  | 0.84 |  |  | not active | 84.2 nM | not active | 
9 | COc1ccccc1C(Cc1ccccc1)NC(=O)NCCF (stereo not shown) [1-(2-fluoroethyl)-3-[1-(2-methoxyphenyl)-2-phenylethyl]urea] |  |  |  | 0.88 |  | 0.42 | not active | 51.2 nM |  | 78.9 nM
10 | O=C(NCCF)NC(Cc1ccccc1)C1CCCCC1 (stereo not shown) [1-(1-cyclohexyl-2-phenylethyl)-3-(2-fluoroethyl)urea] |  |  |  | 0.33 |  |  | not active | 640 nM | not active | 
